Data published in patent US11236049B2, “Amorphous and crystalline forms of IDO inhibitors” (BRISTOL-MYERS SQUIBB COMPANY, priority 2017, dated 2022).
Where “and” joins values, the source holds several entries; their conditions need not be identical. Equal entries are not always repeated. Where two headings read alike, the source gives them in different places.

Assays:
[1] = type: physicochemical
Method: Stability Testing Chromatographic Conditions: VHPLC Parameters VHPLC System: Waters AcQuity BSM or […] system equipped with a Waters UV/Vis Detector Column: Ascentis Express C18, 150 mm×2.1 mm i.d., 2.7 um particle size. Detector Wavelength: 218 nm VHPLC detector time constrat: normal VHPLC sampling rate: 20 Hz […] Flow Rate: 0.5 mL/min Injection volume 1 uL Column temperature: 30° C. Run time: 14 minutes Sample temperature: 5° C. Mobile Phase A: water:acetonitrile:TFA (95:5:0.05) Mobile Phase B: water: acetonitrile:TFA (5:95:0.05) [table] […] The study consisted of one batch of drug substance packaged in double LDPE bags, placed in a 0.6 L HDPE paid with a lid and gasket.

[2] = pH solubility of Compound 1 MSA Salt Form 1; type: physicochemical
Method: Measurements were taken using an Orion ATI Model 370 pH meter. […] To each vial was added 5 mL of various aqueous acidic and basic solutions. Each vial was stoppered and vortexed and sonicated to mix well. The pH of each sample was recorded. […] After 24 hours of stirring, the pH of each sample (as a suspension) was recorded. Suspensions were filtered with 0.2 micron Acrodisc syringe filters. The clear filtrates were collected and vortexed to mix well pH of each filtrated was recorded. pH of suspension and filtrate were nearly identical. A 1.0 mL aliquot of each of the filtrates 25-fold using 50% acetonitrile/50% Milli-Q water, q.w. each flask to 25 mL. […] Samples were assayed using the following HPLC method: Column: […] Mobile phase Solvent A: Water w/0.05% TFA • Solvent B: Acetonitrile w/0.05% TFA […] Column temperature: Ambient RT Detector Wavelength: 250 nm […] Working Concentration: […] Added 20 mL of 100% acetonitrile to the vial. Stoppered, vortexed, and sonicated the vial. […] Transferred the suspension to a 250 mL glass volumetric flask, and washed out the glass vial with 4×20 mL 50% acetonitrile/50% Milli-Q water, transferring each wash into the volumetric flask. All solids dissolved. Q.S. the volumetric flask to 250 mL final volume using 50% acetonitrile/50% Milli Q water, shake to give standard solution at 101.5 mcg/mL.

[3] = in vivo
[4] = Jet milling: milled physical properties; type: physicochemical
Description: Particle size reduction can be achieved by jet milling using a 0202 Jet o Mizer loop Mill. Particle collisions are enabled by nitrogen gas supplied at high pressure to the milling chamber via two grinding nozzles. The feed rate of the drug substance into the mill is controlled by a feeder that supplies drug substance into the feed hopper of the mill at a visually consistent feed rate. High pressure nitrogen gas is supplied through the venturi nozzle to inject drug substance from the mill feed hopper into the milling chamber, and this is referred to as the venture pressure. The grinding and venturi pressures are adjusted to the desired level before the start of milling, and both are kept at the same level unless product blow back from the feed hopper is observed. The venturi pressure is typically adjusted to 10 PSI above the grinding pressure. The micronized drug substance exits via the mill chamber outlet to be collected in the product collection unit consisting of a combined cyclone and porous fabric filter media assembly. Milling parameters may be adjusted based on sample analysis. Particle sizes that range between 12.7 μm and 24.0 μm (D90 by laser-light scattering) are achieved from the milling operation.

[5] = for AUC (Mean) / Dissolution Rate (Mean): 150 mg in 250 mL (0.60 mg/mL API equivalent), 37° C.
Method: Microdissolution Microdissolution experiments were conducted in a pIon μDiss Profiler microdissolution instrument (pION μDiss Profiler) with a fiber optic UV monitoring system, as follows: Probes: 2.5 mm probes (5 mm path length) Volume: 15 ml Stirring: 150 rpm Temperature: 37° C. […] The target doses were 150 mg in 250 mL (0.60 mg/mL API equivalent) in FaSSIF (pH 6.5) and FeSSIF (pH 5).

[6] = No. 1 Long Term, 5° C., 1 month
[7] = No. 1 Long Term, 5° C., 3 months
[8] = No. 1 Long Term, 5° C., 6 months
[9] = No. 1 Long Term, 5° C., 12 months
[10] = No. 2 Long Term, 25° C./60% RH, 1 month
[11] = No. 2 Long Term, 25° C./60% RH, 3 months
[12] = No. 2 Long Term, 25° C./60% RH, 6 months
[13] = No. 2 Long Term, 25° C./60% RH, 12 months
[14] = No. 3 Accelerated, 40° C./75% RH, 1 month
[15] = No. 3 Accelerated, 40° C./75% RH, 2 weeks
[16] = No. 3 Accelerated, 40° C./75% RH, 3 months
[17] = No. 3 Accelerated, 40° C./75% RH, 6 months
[18] = No. 5 Stress, 40° C./75% RH exposed, 1 month
[19] = No. 5 Stress, 40° C./75% RH exposed, 2 weeks
[20] = No. 5 Stress, 40° C./75% RH exposed, 3 months
[21] = No. 5 Stress, 40° C./75% RH exposed, 6 months
[22] = No. 7 Stress, 25° C./HIL/UVA Exposed, 2 weeks
[23] = No. 7 Stress, 25° C./HIL/UVA Exposed, 4 days
[24] = No. 7 Stress, 25° C./HIL/UVA protected, 2 weeks
[25] = No. 7 Stress, 25° C./HIL/UVA protected, 4 days

Compound: CS(=O)(=O)O.C[C@@H](C(=O)Nc1ccc(Cl)cc1)[C@H]1CC[C@@H](c2ccnc3ccc(F)cc32)CC1 [Compound 1 MSA Salt Form 1, (R)-N-(4-chlorophenyl)-2-((1S,4S)-4-(6-fluoroquinolin-4-yl)cyclohexyl)propanamide methanesulfonate]
- photostability study conclusion [1]: does not need to be protected from light
- Assay “as is” [1, 6]: 81.9%
- Assay “corrected” [1, 6]: 100.5%
- Assay “as is” [1, 7]: 82.4%
- Assay “corrected” [1, 7]: 101.1%
- Assay “as is” [1, 8]: 81.2%
- Assay “corrected” [1, 8]: 99.6%
- Assay “as is” [1, 9]: 81.7%
- Assay “corrected” [1, 9]: 100.5%
- Assay “as is” [1, 10]: 82.1%
- Assay “corrected” [1, 10]: 100.8%
- Assay “as is” [1, 11]: 81.7%
- Assay “corrected” [1, 11]: 100.4%
- Assay “as is” [1, 12]: 81.2%
- Assay “corrected” [1, 12]: 99.7%
- Assay “as is” [1, 13]: 81.1%
- Assay “corrected” [1, 13]: 99.8%
- Assay “as is” [1, 14]: 82.3%
- Assay “corrected” [1, 14]: 101.0%
- Assay “as is” [1, 15]: 80.7%
- Assay “corrected” [1, 15]: 99.1%
- Assay “as is” [1, 16]: 81.5%
- Assay “corrected” [1, 16]: 100.1%
- Assay “as is” [1, 17]: 81.8%
- Assay “corrected” [1, 17]: 100.4%
- Assay “as is” ([1]; No. 4 Stress, −20° C., 1 month): 82.4%
- Assay “corrected” ([1]; No. 4 Stress, −20° C., 1 month): 101.1%
- Assay “as is” [1, 18]: 81.6%
- Assay “corrected” [1, 18]: 100.3%
- Assay “as is” [1, 19]: 80.9%
- Assay “corrected” [1, 19]: 99.3%
- Assay “as is” [1, 20]: 81.4%
- Assay “corrected” [1, 20]: 99.9%
- Assay “as is” [1, 21]: 80.3%
- Assay “corrected” [1, 21]: 98.6%
- Assay “as is” ([1]; No. 6 Stress, 50° C., 1 month): 82.0%
- Assay “corrected” ([1]; No. 6 Stress, 50° C., 1 month): 100.7%
- Assay “as is” ([1]; No. 6 Stress, 50° C., 2 weeks): 80.8%
- Assay “corrected” ([1]; No. 6 Stress, 50° C., 2 weeks): 99.2%
- Assay “as is” ([1]; No. 6 Stress, 50° C., 3 months): 82.2%
- Assay “corrected” ([1]; No. 6 Stress, 50° C., 3 months): 100.9%
- Assay “as is” [1, 22]: 78.7%
- Assay “corrected” [1, 22]: 96.8%
- Assay “as is” [1, 23]: 80.8%
- Assay “corrected” [1, 23]: 99.2%
- Assay “as is” [1, 24]: 80.4%
- Assay “corrected” [1, 24]: 98.7%
- Assay “as is” [1, 25]: 81.1%
- Assay “corrected” [1, 25]: 99.5%
- storage time remained stable ([1]; accelerated condition of 40° C./75% RH): ≥ 6 months
- changes in XRD pattern ([1]; after any of the study numbers): No changes
- change in total impurities on light exposure ([1]; approximately 3.5 times the minimum ICH exposure): slight increase
- Color and appearance (white or off-white powder or powder with lumps) ([1]; during the studies): maintained
- 4-chloroaniline (impurity) ([1]; initial): 0.09%
- enantiomeric impurity of Compound 1 ([1]; initial): < 0.05%
- total impurities ([1]; initial): 0.57%
- water content ([1]; initial): < 0.1 % w/w
- Assay “as is” ([1]; initial (average of 2 results)): 79.0% and 79.0^1%
- Assay “corrected” ([1]; initial (average of 2 results)): 97.0% and 97.0^1%
- storage time remained stable ([1]; long-term conditions of 5° C. and 25° C./60% relative humidity (RH)): at least 12 months
- changes on light exposure ([1]; minimum ICH Q1B exposure): Essentially no changes
- storage time remained stable ([1]; stress condition of 50° C.): ≥ 3 months
- total impurities ([1]; study number 3): 0.48%
- total impurities ([1]; study number 6): 0.50%
- changes in assay “as is” or “corrected” from initial ([1]; study numbers 1, 2, 3, and 5): Essentially no changes
- changes in enantiomeric impurity ([1]; study numbers 1 and 2): No changes
- changes in water content ([1]; study numbers 1 and 2): Essentially no changes
- 4-chloroaniline (impurity) ([1]; study numbers 3 and 6 (both conditions)): < 0.05%
- changes in total impurities from initial ([1]; study numbers 4, 1, 2, and 3): Essentially no changes
- Solubility ([2]; pH 0.49): 24 µg/mL
- Solubility ([2]; pH 1.01): 73 µg/mL
- Solubility ([2]; pH 2.46): 147 µg/mL
- Solubility ([2]; pH 2.7): 85 µg/mL
- Solubility ([2]; pH 3.14): 18 µg/mL
- Solubility ([2]; pH 3.61): 3 µg/mL
- Solubility ([2]; pH 4.53): 1 µg/mL
- Solubility ([2]; pH 6.82): 1 µg/mL
- Solubility ([2]; pH 7): 96 µg/mL
- Solubility ([2]; pH 9.68): 2 µg/mL
- oral bioavailability [3]: increased oral bioavailability
- Bulk density ([4]; for sample with D90 of 22.3 μm): 0.193 g/mL
- D50 ([4]; range from 0202 Jet Mill): 6.2-9.8 μm
- Surface area ([4]; range from 0202 Jet Mill): 2.08-3.63 m^2/g
- D90 ([4]; range from 0202 Jet Mill, laser-light scattering): 12.7-24.0 μm
- rate and extent of dissolution compared to an amorphous form or HCl salts (amorphous and crystalline) ([5]; Example 14, FIG. 7, both FeSSiF and FaSSiF, simulated 150 mg human dose): faster rate and extent of dissolution
- rate and extent of dissolution compared to Compound 1 free base (amorphous) ([5]; Example 14, FIG. 8, FaSSIF and FeSSIF at 0.2 mg/mL): faster rate and extent of dissolution
- rate of dissolution ([5]; Example 16, FeSSIF): 38 µg/mL/min
- AUC (Mean) ([5]; FaSSIF (pH 6.5)): 14988.073 µg·min/mL
- Dissolution Rate (Mean) ([5]; FaSSIF (pH 6.5)): 2.460 µg/mL/min
- AUC (Mean) ([5]; FeSSIF (pH 5)): 46410.396 µg·min/mL
- Dissolution Rate (Mean) ([5]; FeSSIF (pH 5)): 38.850 µg/mL/min
- Peak Solubility (Mean) ([5]; pH 5): 271.564 µg/mL
- Peak Solubility (Mean) ([5]; pH 6.5): 100.877 µg/mL
